Measured values from ChEMBL document CHEMBL1697781, “Assessment of the health effects of chemicals in humans: II. Construction of an adverse effects database for QSAR modeling” (Curr Drug Discov Technol, 2004).

Columns and labels:
Settings in all cases: human
Hepatotoxicity [1] = assay: FDA HLAED, liver enzyme composite activity
Hepatotoxicity [2] = assay: FDA HLAED, alkaline phosphatase increase
Hepatotoxicity [3] = assay: FDA HLAED, serum glutamic oxaloacetic transaminase (SGOT) increase
Hepatotoxicity [4] = assay: FDA HLAED, serum glutamic pyruvic transaminase (SGPT) increase
Hepatotoxicity [5] = assay: FDA HLAED, lactate dehydrogenase (LDH) increase
Hepatotoxicity [6] = assay: FDA HLAED, gamma-glutamyl transferase (GGT) increase
Wherever GGT Increase - Index Value is given: reference of the scale not given here.
Wherever LDH Increase - Index Value is given: reference of the scale not given here.

CN1CCN(C2=Nc3cc(Cl)ccc3Nc3ccccc32)CC1 [CLOZAPINE]
34.2: Alkaline Phosphatase Increase - Index Value (Hepatotoxicity [2])
11.4: GGT Increase - Index Value (Hepatotoxicity [6])
45.1: SGOT Increase - Index Value (Hepatotoxicity [3])
Active: Composite Activity - Score (Hepatotoxicity [1]) | Alkaline Phosphatase Increase - Activity Score (Hepatotoxicity [2]) | SGOT Increase - Activity Score (Hepatotoxicity [3]) | SGPT Increase - Activity Score (Hepatotoxicity [4]) | LDH Increase - Activity Score (Hepatotoxicity [5]) | GGT Increase - Activity Score (Hepatotoxicity [6])
16.8: LDH Increase - Index Value (Hepatotoxicity [5])
>= 4: Alkaline Phosphatase Increase - Number of Reports (Hepatotoxicity [2]) | SGOT Increase - Number of Reports (Hepatotoxicity [3]) | SGPT Increase - Number of Reports (Hepatotoxicity [4]) | LDH Increase - Number of Reports (Hepatotoxicity [5]) | GGT Increase - Number of Reports (Hepatotoxicity [6])
0: Composite Activity - Marginal (Hepatotoxicity [1])
5: Composite Activity - Active (Hepatotoxicity [1])
42.9: SGPT Increase - Index Value (Hepatotoxicity [4])

CC1(C)S[C@@H]2[C@H](NC(=O)C3(N)CCCCC3)C(=O)N2[C@H]1C(=O)O [CYCLACILLIN]
< 4: Alkaline Phosphatase Increase - Number of Reports (Hepatotoxicity [2]) | SGOT Increase - Number of Reports (Hepatotoxicity [3]) | SGPT Increase - Number of Reports (Hepatotoxicity [4]) | LDH Increase - Number of Reports (Hepatotoxicity [5]) | GGT Increase - Number of Reports (Hepatotoxicity [6])
Inactive: Composite Activity - Score (Hepatotoxicity [1]) | Alkaline Phosphatase Increase - Activity Score (Hepatotoxicity [2]) | SGOT Increase - Activity Score (Hepatotoxicity [3]) | SGPT Increase - Activity Score (Hepatotoxicity [4]) | LDH Increase - Activity Score (Hepatotoxicity [5]) | GGT Increase - Activity Score (Hepatotoxicity [6])
0: Composite Activity - Active (Hepatotoxicity [1]) | Composite Activity - Marginal (Hepatotoxicity [1]) | Alkaline Phosphatase Increase - Index Value (Hepatotoxicity [2]) | SGOT Increase - Index Value (Hepatotoxicity [3]) | SGPT Increase - Index Value (Hepatotoxicity [4]) | LDH Increase - Index Value (Hepatotoxicity [5]) | GGT Increase - Index Value (Hepatotoxicity [6])

Cc1ccccc1N1CCN(CCc2nnc3n2CCCC3)CC1 [DAPIPRAZOLE]
0: Composite Activity - Active (Hepatotoxicity [1]) | Composite Activity - Marginal (Hepatotoxicity [1]) | Alkaline Phosphatase Increase - Index Value (Hepatotoxicity [2]) | SGOT Increase - Index Value (Hepatotoxicity [3]) | SGPT Increase - Index Value (Hepatotoxicity [4]) | LDH Increase - Index Value (Hepatotoxicity [5]) | GGT Increase - Index Value (Hepatotoxicity [6])
< 4: Alkaline Phosphatase Increase - Number of Reports (Hepatotoxicity [2]) | SGOT Increase - Number of Reports (Hepatotoxicity [3]) | SGPT Increase - Number of Reports (Hepatotoxicity [4]) | LDH Increase - Number of Reports (Hepatotoxicity [5]) | GGT Increase - Number of Reports (Hepatotoxicity [6])
Inactive: Composite Activity - Score (Hepatotoxicity [1]) | Alkaline Phosphatase Increase - Activity Score (Hepatotoxicity [2]) | SGOT Increase - Activity Score (Hepatotoxicity [3]) | SGPT Increase - Activity Score (Hepatotoxicity [4]) | LDH Increase - Activity Score (Hepatotoxicity [5]) | GGT Increase - Activity Score (Hepatotoxicity [6])

COc1cccc2c1C(=O)c1c(O)c3c(c(O)c1C2=O)C[C@@](O)(C(C)=O)C[C@@H]3O[C@H]1C[C@H](N)[C@H](O)[C@H](C)O1 [DAUNORUBICIN]
Inactive: Composite Activity - Score (Hepatotoxicity [1]) | Alkaline Phosphatase Increase - Activity Score (Hepatotoxicity [2]) | SGOT Increase - Activity Score (Hepatotoxicity [3]) | SGPT Increase - Activity Score (Hepatotoxicity [4]) | LDH Increase - Activity Score (Hepatotoxicity [5]) | GGT Increase - Activity Score (Hepatotoxicity [6])
0: Composite Activity - Active (Hepatotoxicity [1]) | Composite Activity - Marginal (Hepatotoxicity [1]) | Alkaline Phosphatase Increase - Index Value (Hepatotoxicity [2]) | SGOT Increase - Index Value (Hepatotoxicity [3]) | SGPT Increase - Index Value (Hepatotoxicity [4]) | LDH Increase - Index Value (Hepatotoxicity [5]) | GGT Increase - Index Value (Hepatotoxicity [6])
< 4: Alkaline Phosphatase Increase - Number of Reports (Hepatotoxicity [2]) | SGOT Increase - Number of Reports (Hepatotoxicity [3]) | SGPT Increase - Number of Reports (Hepatotoxicity [4]) | LDH Increase - Number of Reports (Hepatotoxicity [5]) | GGT Increase - Number of Reports (Hepatotoxicity [6])

CCN[C@@H](C)Cc1cccc(C(F)(F)F)c1 [DEXFENFLURAMINE]
1: SGOT Increase - Index Value (Hepatotoxicity [3])
>= 4: SGOT Increase - Number of Reports (Hepatotoxicity [3])
0: Composite Activity - Active (Hepatotoxicity [1]) | Composite Activity - Marginal (Hepatotoxicity [1])
0.2: Alkaline Phosphatase Increase - Index Value (Hepatotoxicity [2])
0.4: LDH Increase - Index Value (Hepatotoxicity [5])
0.6: SGPT Increase - Index Value (Hepatotoxicity [4]) | GGT Increase - Index Value (Hepatotoxicity [6])
< 4: Alkaline Phosphatase Increase - Number of Reports (Hepatotoxicity [2]) | SGPT Increase - Number of Reports (Hepatotoxicity [4]) | LDH Increase - Number of Reports (Hepatotoxicity [5]) | GGT Increase - Number of Reports (Hepatotoxicity [6])
Inactive: Composite Activity - Score (Hepatotoxicity [1]) | Alkaline Phosphatase Increase - Activity Score (Hepatotoxicity [2]) | SGOT Increase - Activity Score (Hepatotoxicity [3]) | SGPT Increase - Activity Score (Hepatotoxicity [4]) | LDH Increase - Activity Score (Hepatotoxicity [5]) | GGT Increase - Activity Score (Hepatotoxicity [6])

C[C@@H](CN1CC(=O)NC(=O)C1)N1CC(=O)NC(=O)C1 [DEXRAZOXANE]
Inactive: Composite Activity - Score (Hepatotoxicity [1]) | Alkaline Phosphatase Increase - Activity Score (Hepatotoxicity [2]) | SGOT Increase - Activity Score (Hepatotoxicity [3]) | SGPT Increase - Activity Score (Hepatotoxicity [4]) | LDH Increase - Activity Score (Hepatotoxicity [5]) | GGT Increase - Activity Score (Hepatotoxicity [6])
< 4: Alkaline Phosphatase Increase - Number of Reports (Hepatotoxicity [2]) | SGOT Increase - Number of Reports (Hepatotoxicity [3]) | SGPT Increase - Number of Reports (Hepatotoxicity [4]) | LDH Increase - Number of Reports (Hepatotoxicity [5]) | GGT Increase - Number of Reports (Hepatotoxicity [6])
0: Composite Activity - Active (Hepatotoxicity [1]) | Composite Activity - Marginal (Hepatotoxicity [1]) | Alkaline Phosphatase Increase - Index Value (Hepatotoxicity [2]) | SGOT Increase - Index Value (Hepatotoxicity [3]) | SGPT Increase - Index Value (Hepatotoxicity [4]) | LDH Increase - Index Value (Hepatotoxicity [5]) | GGT Increase - Index Value (Hepatotoxicity [6])

C[C@@]12CCCCC[C@@H](Cc3ccc(O)cc31)[C@@H]2N [DEZOCINE]
< 4: Alkaline Phosphatase Increase - Number of Reports (Hepatotoxicity [2]) | SGOT Increase - Number of Reports (Hepatotoxicity [3]) | SGPT Increase - Number of Reports (Hepatotoxicity [4]) | LDH Increase - Number of Reports (Hepatotoxicity [5]) | GGT Increase - Number of Reports (Hepatotoxicity [6])
Inactive: Composite Activity - Score (Hepatotoxicity [1]) | Alkaline Phosphatase Increase - Activity Score (Hepatotoxicity [2]) | SGOT Increase - Activity Score (Hepatotoxicity [3]) | SGPT Increase - Activity Score (Hepatotoxicity [4]) | LDH Increase - Activity Score (Hepatotoxicity [5]) | GGT Increase - Activity Score (Hepatotoxicity [6])
0: Composite Activity - Active (Hepatotoxicity [1]) | Composite Activity - Marginal (Hepatotoxicity [1]) | Alkaline Phosphatase Increase - Index Value (Hepatotoxicity [2]) | SGOT Increase - Index Value (Hepatotoxicity [3]) | SGPT Increase - Index Value (Hepatotoxicity [4]) | LDH Increase - Index Value (Hepatotoxicity [5]) | GGT Increase - Index Value (Hepatotoxicity [6])

O=C(O)Cc1ccccc1Nc1c(Cl)cccc1Cl [DICLOFENAC]
Marginally Active: GGT Increase - Activity Score (Hepatotoxicity [6])
Active: Composite Activity - Score (Hepatotoxicity [1]; Liver) | Alkaline Phosphatase Increase - Activity Score (Hepatotoxicity [2]) | SGOT Increase - Activity Score (Hepatotoxicity [3]) | SGPT Increase - Activity Score (Hepatotoxicity [4])
3: Composite Activity - Active (Hepatotoxicity [1]; Liver)
3.8: GGT Increase - Index Value (Hepatotoxicity [6])
2: LDH Increase - Index Value (Hepatotoxicity [5])
1: Composite Activity - Marginal (Hepatotoxicity [1]; Liver)
11.1: SGPT Increase - Index Value (Hepatotoxicity [4])
>= 4: Alkaline Phosphatase Increase - Number of Reports (Hepatotoxicity [2]) | SGOT Increase - Number of Reports (Hepatotoxicity [3]) | SGPT Increase - Number of Reports (Hepatotoxicity [4]) | LDH Increase - Number of Reports (Hepatotoxicity [5]) | GGT Increase - Number of Reports (Hepatotoxicity [6])
Inactive: LDH Increase - Activity Score (Hepatotoxicity [5])
9.2: Alkaline Phosphatase Increase - Index Value (Hepatotoxicity [2])
11.4: SGOT Increase - Index Value (Hepatotoxicity [3])

O=c1[nH]cnc2c1ncn2[C@H]1CC[C@@H](CO)O1 [DIDANOSINE]
1.5: GGT Increase - Index Value (Hepatotoxicity [6])
1: Composite Activity - Marginal (Hepatotoxicity [1])
Active: Composite Activity - Score (Hepatotoxicity [1]) | Alkaline Phosphatase Increase - Activity Score (Hepatotoxicity [2]) | SGOT Increase - Activity Score (Hepatotoxicity [3]) | SGPT Increase - Activity Score (Hepatotoxicity [4])
13.7: SGOT Increase - Index Value (Hepatotoxicity [3])
>= 4: Alkaline Phosphatase Increase - Number of Reports (Hepatotoxicity [2]) | SGOT Increase - Number of Reports (Hepatotoxicity [3]) | SGPT Increase - Number of Reports (Hepatotoxicity [4]) | LDH Increase - Number of Reports (Hepatotoxicity [5])
14.5: Alkaline Phosphatase Increase - Index Value (Hepatotoxicity [2])
12.9: SGPT Increase - Index Value (Hepatotoxicity [4])
Marginally Active: LDH Increase - Activity Score (Hepatotoxicity [5])
3: Composite Activity - Active (Hepatotoxicity [1]) | LDH Increase - Index Value (Hepatotoxicity [5])
Inactive: GGT Increase - Activity Score (Hepatotoxicity [6])
< 4: GGT Increase - Number of Reports (Hepatotoxicity [6])

O=C(O)c1cc(-c2ccc(F)cc2F)ccc1O [DIFLUNISAL]
0: Composite Activity - Active (Hepatotoxicity [1]; Liver) | Composite Activity - Marginal (Hepatotoxicity [1]; Liver) | Alkaline Phosphatase Increase - Index Value (Hepatotoxicity [2]) | LDH Increase - Index Value (Hepatotoxicity [5]) | GGT Increase - Index Value (Hepatotoxicity [6])
0.5: SGPT Increase - Index Value (Hepatotoxicity [4])
0.3: SGOT Increase - Index Value (Hepatotoxicity [3])
Inactive: Composite Activity - Score (Hepatotoxicity [1]; Liver) | Alkaline Phosphatase Increase - Activity Score (Hepatotoxicity [2]) | SGOT Increase - Activity Score (Hepatotoxicity [3]) | SGPT Increase - Activity Score (Hepatotoxicity [4]) | LDH Increase - Activity Score (Hepatotoxicity [5]) | GGT Increase - Activity Score (Hepatotoxicity [6])
< 4: Alkaline Phosphatase Increase - Number of Reports (Hepatotoxicity [2]) | SGOT Increase - Number of Reports (Hepatotoxicity [3]) | SGPT Increase - Number of Reports (Hepatotoxicity [4]) | LDH Increase - Number of Reports (Hepatotoxicity [5]) | GGT Increase - Number of Reports (Hepatotoxicity [6])

COc1ccc([C@@H]2Sc3ccccc3N(CCN(C)C)C(=O)[C@@H]2OC(C)=O)cc1 [DILTIAZEM]
< 4: Alkaline Phosphatase Increase - Number of Reports (Hepatotoxicity [2]) | SGPT Increase - Number of Reports (Hepatotoxicity [4]) | LDH Increase - Number of Reports (Hepatotoxicity [5]) | GGT Increase - Number of Reports (Hepatotoxicity [6])
0: Composite Activity - Active (Hepatotoxicity [1]) | Composite Activity - Marginal (Hepatotoxicity [1]) | GGT Increase - Index Value (Hepatotoxicity [6])
0.1: Alkaline Phosphatase Increase - Index Value (Hepatotoxicity [2]) | SGPT Increase - Index Value (Hepatotoxicity [4]) | LDH Increase - Index Value (Hepatotoxicity [5])
0.3: SGOT Increase - Index Value (Hepatotoxicity [3])
Inactive: Composite Activity - Score (Hepatotoxicity [1]) | Alkaline Phosphatase Increase - Activity Score (Hepatotoxicity [2]) | SGOT Increase - Activity Score (Hepatotoxicity [3]) | SGPT Increase - Activity Score (Hepatotoxicity [4]) | LDH Increase - Activity Score (Hepatotoxicity [5]) | GGT Increase - Activity Score (Hepatotoxicity [6])
>= 4: SGOT Increase - Number of Reports (Hepatotoxicity [3])

CNCC(O)c1ccc(OC(=O)C(C)(C)C)c(OC(=O)C(C)(C)C)c1 (stereo unspecified) [DIPIVEFRIN]
0: Composite Activity - Active (Hepatotoxicity [1]) | Composite Activity - Marginal (Hepatotoxicity [1]) | Alkaline Phosphatase Increase - Index Value (Hepatotoxicity [2]) | SGOT Increase - Index Value (Hepatotoxicity [3]) | SGPT Increase - Index Value (Hepatotoxicity [4]) | LDH Increase - Index Value (Hepatotoxicity [5]) | GGT Increase - Index Value (Hepatotoxicity [6])
< 4: Alkaline Phosphatase Increase - Number of Reports (Hepatotoxicity [2]) | SGOT Increase - Number of Reports (Hepatotoxicity [3]) | SGPT Increase - Number of Reports (Hepatotoxicity [4]) | LDH Increase - Number of Reports (Hepatotoxicity [5]) | GGT Increase - Number of Reports (Hepatotoxicity [6])
Inactive: Composite Activity - Score (Hepatotoxicity [1]) | Alkaline Phosphatase Increase - Activity Score (Hepatotoxicity [2]) | SGOT Increase - Activity Score (Hepatotoxicity [3]) | SGPT Increase - Activity Score (Hepatotoxicity [4]) | LDH Increase - Activity Score (Hepatotoxicity [5]) | GGT Increase - Activity Score (Hepatotoxicity [6])
